Test results taken from patent publication US8101782B2, “Compounds that inhibit cholinesterase” (priority 2007, dated 2012).
pIC50: −log10 of the molar value. Where two headings read alike, the source gives them in different places.

Key:
[1] = test system: male CD IGS (Sprague Dawley derived) rats; experiment: Measurement of hypothermia (rectal temperature); format: in vivo; conditions: Rattus norvegicus, sc, read-out: Hypothermia MED
Protocol: The induction of hypothermia was determined for compounds of the invention according to the methods described in Freedman, et al., European Journal of Pharmacology, 187 (1990), 193-199, which is incorporated by reference herein. Dose range and time course for cholinergic effects of the compounds of the invention was also determined. […]
(§1) The dose range and time course for cholinergic effects of the compounds of the invention was determined as described below.
(§2) Subjects: Two hundred eight male CD IGS (Sprague Dawley derived) rats were received at 126-150 grams and maintained four per cage on a regular light/dark cycle (lights on 0600-1800) with ad libitum food and water for about 1 week before commencement of experimentation. Apparatus: Injection was done with a 25-gauge ⅝-inch needle on a 1-mL tuberculin syringe. Observation was done in a 5½-×10-inch polycarbonate rat housing cage. Temperature was taken with a rat rectal probe on a Model BAT-12 electronic thermometer. Compound Preparation: Test compounds were dissolved for example, in 0.9% saline. Concentrations for lower doses were prepared by taking aliquots from higher concentrations and diluting. Injection volumes were 1 mL/kg, if the test compound was sufficiently soluble. If less soluble, maximum injection volume were 5 mL/kg. Route of administration was s.c. As sample protocol is as follows: Treatment Groups included (N=3, with 6 for Saline)
(§3) Procedure: The rats were brought to the test room in the home cage. Baseline temperature were be taken just before injection. After injection s.c., the rat was placed in the observation cage. At 0.5, 1, 2, and 4 hours after injection, it was observed briefly for gross signs; salivation was scored as absent, clearly present, or copious; and rectal temperature was taken. In observation for gross signs, special attention was paid to fasciculation (muscle twitch), tremor/ataxia, and abnormal gait.

[2] = target: T1, human recombinant acetylcholinesterase (Homo sapiens, UniProt P22303); experiment: Inhibition of acetylcholinesterase in vitro (modified Ellman colorimetric method, Dixon plot); format: biochemical; conditions: human recombinant AChE, 25° C., 30 minutes preincubation, 0.3 mM acetylthiocholine, pH 8
T1 construct: purchased Sigma Chemical Co (St. Louis, Mo.) C1682
T1 sequence (P22303 32-614): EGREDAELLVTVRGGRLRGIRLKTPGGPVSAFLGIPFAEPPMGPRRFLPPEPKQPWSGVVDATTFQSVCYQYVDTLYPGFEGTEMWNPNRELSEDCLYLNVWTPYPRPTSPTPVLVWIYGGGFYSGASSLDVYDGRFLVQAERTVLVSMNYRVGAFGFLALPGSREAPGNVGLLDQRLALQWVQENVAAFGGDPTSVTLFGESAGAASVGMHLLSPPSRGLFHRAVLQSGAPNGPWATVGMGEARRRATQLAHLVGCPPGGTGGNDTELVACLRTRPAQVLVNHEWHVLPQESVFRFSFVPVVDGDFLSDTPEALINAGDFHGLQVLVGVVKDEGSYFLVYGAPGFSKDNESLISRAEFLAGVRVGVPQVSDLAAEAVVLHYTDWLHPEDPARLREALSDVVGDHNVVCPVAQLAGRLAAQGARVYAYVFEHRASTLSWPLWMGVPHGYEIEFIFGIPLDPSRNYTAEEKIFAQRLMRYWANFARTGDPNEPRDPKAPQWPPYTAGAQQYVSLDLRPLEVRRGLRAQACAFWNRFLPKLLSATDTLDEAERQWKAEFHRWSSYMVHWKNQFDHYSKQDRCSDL

[3] = target: AChE (Homo sapiens, UniProt P22303); experiment: In vitro screening assay, AChE inhibition (spectrophotometric quantitation of thiocholine); format: biochemical; conditions: 700 μM acetylthiocholine, pH 7.4, 25° C.; for AChEI (%) 1 μM: 1 μM compound; for AChEI (%) 10 μM: 10 μM compound
Sequence of AChE (P22303 32-614): as above

[4] = target: BuChE (Homo sapiens, UniProt P06276); experiment: In vitro screening assay, BuChE inhibition; format: biochemical; conditions: for BuChEI (%) 1 μM: 1 μM compound; for BuChEI (%) 10 μM: 10 μM compound
Sequence of BuChE (P06276 29-602): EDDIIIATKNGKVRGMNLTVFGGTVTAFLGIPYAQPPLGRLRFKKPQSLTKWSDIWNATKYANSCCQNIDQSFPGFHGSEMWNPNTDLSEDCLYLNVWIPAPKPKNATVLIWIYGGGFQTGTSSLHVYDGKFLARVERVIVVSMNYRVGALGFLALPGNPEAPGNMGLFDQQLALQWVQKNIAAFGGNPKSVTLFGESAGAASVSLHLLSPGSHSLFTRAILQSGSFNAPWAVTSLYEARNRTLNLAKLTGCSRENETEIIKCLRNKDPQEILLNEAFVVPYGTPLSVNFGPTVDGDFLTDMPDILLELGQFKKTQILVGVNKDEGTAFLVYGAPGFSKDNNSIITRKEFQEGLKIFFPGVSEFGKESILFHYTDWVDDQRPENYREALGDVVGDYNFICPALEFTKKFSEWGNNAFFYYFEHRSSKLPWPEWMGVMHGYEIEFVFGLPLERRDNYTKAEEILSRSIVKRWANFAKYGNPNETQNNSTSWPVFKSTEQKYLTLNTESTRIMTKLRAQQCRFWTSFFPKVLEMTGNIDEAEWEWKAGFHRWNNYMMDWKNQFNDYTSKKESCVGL
Text: (§4) An in vitro screening assay with compounds of the invention was completed according to the methods described in Ellman G L et al., Biochem Pharmacol., 7:88-95 (1961) and in Nadarajah B, J. Anal. Toxicol., 16:192-193 (1992), both of which are herein incorporated by reference in their entireties.
as §4, with “entireties. The assay method was completed according to the following: […]” for “entireties.”

[5] = test system: male CD IGS (Sprague Dawley derived) rats; experiment: Determination of the dose range and time course for cholinergic effects (gross signs, salivation); conditions: s.c., doses 1, 3, 10, 30 and 100 mg/kg; observed up to 4 hours
Protocol: The induction of hypothermia was determined for compounds of the invention according to the methods described in Freedman, et al., European Journal of Pharmacology, 187 (1990), 193-199, which is incorporated by reference herein. Dose range and time course for cholinergic effects of the compounds of the invention was also determined.
as §1, §2, §3

[6] = minimum effective dose for hypothermia, s.c., temperature at 0.5, 1, 2 and 4 hours after injection

| Compound | minimal effective dose [1, 6] [mg/kg] | pIC50 [2] | AChEI (%) 10 μM [3] [%] | BuChEI (%) 10 μM [4] [%] | further results |
| --- | --- | --- | --- | --- | --- |
| CCN(C)C(=O)Oc1cccc([C@H](C)N(C)C)c1 [Compound 1, S-rivastigmine, reference compound] | ≤ 0.1 |  |  |  |  |
| C[C@@H](c1cccc(OC(=O)N[C@@H]2C[C@H]2c2ccccc2)c1)N(C)C [Compound 2, S-rivastigmine-tranylcypromine] | 10 | 6.70 | 97 | 67 | AChEI (%) 1 μM [3]: 84%; BuChEI (%) 1 μM [4]: 23%; Max Tolerated Dose [5]: 30 |
| C[C@@H](c1cccc(OC(=O)N2CCN(C3=Nc4ccccc4Oc4ccc(Cl)cc43)CC2)c1)N(C)C [Compound 3, S-rivastigmine-amoxapine] | 10 |  |  |  |  |
| C[C@@H](c1cccc(OC(=O)N(C)CCCN2c3ccccc3CCc3ccccc32)c1)N(C)C [Compound 4, S-rivastigmine-desipramine] | 3 |  |  |  |  |
| C[C@@H](c1cccc(OC(=O)N(C)CCC=C2c3ccccc3CCc3ccccc32)c1)N(C)C [Compound 5, S-rivastigmine-nortriptyline] | ≤ 1 |  |  |  | Max Tolerated Dose [5]: ≧100 |
| C[C@@H](c1cccc(OC(=O)N(C)CCCC2c3ccccc3C=Cc3ccccc32)c1)N(C)C [Compound 6, S-rivastigmine-protriptyline] | 100 |  |  |  |  |
| C[C@@H](c1cccc(OC(=O)N(C)CCC(Oc2ccc(C(F)(F)F)cc2)c2ccccc2)c1)N(C)C (stereo partly shown) [Compound 7, S-rivastigmine-fluoxetine] | 3 |  |  |  |  |
| C[C@@H](c1cccc(OC(=O)N(C)CCc2ccccn2)c1)N(C)C [Compound 11, S-rivastigmine-betahistine] |  | 4.88 | 47 | 100 | BuChEI (%) 1 μM [4]: 45%; minimal effective dose [1]: < 1 mg/kg; Max Tolerated Dose [5]: 30 |
| CCOC(=O)C1=C(COCCNC(=O)Oc2cccc([C@H](C)N(C)C)c2)NC(C)=C(C(=O)OC)C1c1ccccc1Cl (stereo partly shown) [Compound 12, S-rivastigmine-amlodipine] |  | 5.43 | 79 | 6 | AChEI (%) 1 μM [3]: 20% |
| CC(CC1CCCCC1)N(C)C(=O)Oc1cccc([C@H](C)N(C)C)c1 (stereo partly shown) [Compound 13, S-rivastigmine-propylhexedrine] | 10 |  | 99 | 100 | AChEI (%) 1 μM [3]: 62%; BuChEI (%) 1 μM [4]: 37% |
| CC(NC(=O)Oc1cccc([C@H](C)N(C)C)c1)C12CC3CC(CC(C3)C1)C2 (stereo partly shown) [Compound 14, S-rivastigmine-rimantadine] |  | 5.35 | 77 | 13 | AChEI (%) 1 μM [3]: 28% |
| C[C@@H](c1cccc(OC(=O)N2CCC(=C3c4ccc(Cl)cc4CCc4cccnc43)CC2)c1)N(C)C [Compound 15, S-rivastigmine-desloratidine] |  | 4.90 | 36 | 6 | minimal effective dose [1]: 3 mg/kg; Max Tolerated Dose [5]: ≧100 |
| C[C@@H](c1cccc(OC(=O)NC23CC4CC(CC(C4)C2)C3)c1)N(C)C [Compound 16, S-riva- amantadine] |  | 4.14 |  |  |  |
| C[C@@H](c1cccc(OC(=O)N[C@@]23CC4C[C@@](C)(C[C@@](C)(C4)C2)C3)c1)N(C)C [Compound 17, S-riva memantine] |  | 5.24 |  |  |  |
| CC(C)C[C@@H](CNC(=O)Oc1cccc([C@H](C)N(C)C)c1)CC(=O)O [Compound 18, S-riva pregabalin] |  | 4.60 |  |  |  |
| C[C@@H](c1cccc(OC(=O)NCC(CC(=O)O)c2ccc(Cl)cc2)c1)N(C)C (stereo partly shown) [Compound 19, S-riva baclofen] |  | 4.77 |  |  |  |
| C[C@@H](c1cccc(OC(=O)N2CCN(c3cc4c(cc3F)c(=O)c(C(=O)O)cn4C3CC3)CC2)c1)N(C)C [Compound 20, S-riva ciprofloxacin] |  | 4.27 |  |  |  |
